# Laboratory results published in US20060252698A1, “Compounds for inhibiting cathepsin activity” (priority 2005, published 2006).
# Starred links: 1 amine or outer side, 2 acyl side, 3 side chain; linkers in the order of their positions; H or OH if unused. Non-standard residues stand in square brackets, D forms with d. Residues, ends and D or L forms follow the SMILES beside them. *: point of attachment. Pro(3S,4R-methano) = O=C(O)[C@H]1NC[C@@H]2C[C@@H]21; Isobutyloxycarbonyl = CC(C)COC(=O)*; X3 = C=CCCC(N[*:1])C(=O)C(=O)[*:2]; X2 = CCCC(N[*:1])C(=O)C(=O)[*:2]; Chg = N[CH](C(=O)O)C1CCCCC1; Phg = N[CH](C(=O)O)c1ccccc1; Boc = CC(C)(C)OC(=O)*
# Biological target: T1, Human Liver Cathepsin L (Homo sapiens, UniProt P07711)
# T1 construct: purchased Calbiochem 219402
# Assay: Cathepsin L inhibition assay (kinetic, Z-Phe-Arg-pNA substrate)
# Format: biochemical
# Conditions: Z-Phe-Arg-pNA 120 μM, enzyme 12 nM, pH 5.5, read at 410 nm
# Method: Cathepsin Assay Protocols:
# • 1. 96-well Round or V-bottom microplates for dilutions • 2. 96-well COSTAR UV microplates for assay (COSTAR cat.#3635) • 3. Bio-Spin 6 Chromatography Columns (BIO-RAD cat.#732-6002). • 4. 12-75 mm test tubes • 5. Falcon 50 ml tubes • 6. Falcon 14 ml tubes • 7. 1.5 ml eppendorf tube • 8. ≦10 ml buffer reservoir Reagents: • 1. Enzyme: Cathepsin G, M.W.23,500, 10 μM stock. • 2. Substrate:Suc-Ala-Ala-Pro-Phe-pNA, M.W. 624.65, prep. 100 mM [62.465 mg/ml] stock. • 3. Buffer: [50 mM HEPES, 500 mM NaCl, 5 μM EDTA, pH 7.14], 5 μM DTT Instrument Settings: SpectraMax Plus • 1. Kinetic assay reading@405 nm • 2. Read interval: 30 seconds • 3. Time: 1 hour • 4. OD Min: −0.001 • 5. OD Max: 0.5 • 6. Data Mode: Absorbance • 7. e405=194.078 μM/O.D. Procedure: • 1. Add 73 μl of buffer to all wells. • 2. Add […] of buffer to (−E) controls. • 3. Add 7 μl of sample and/or DMSO for controls to appropriate wells. • 4. Prep. substrate: 100 mM (62.465 mg/ml) stock in 100% DMSO. • 5. Dilute 1:20 in buffer. 75 μl in 1.425 ml. 5 mM final. • 6. Add 20 μl of 5 mM substrate to all wells. 500 μM final. • 7. Dilute enzyme (1:50) in buffer; Add 120 μl to 5,880 μl buffer. 2×[200 nM] final. • 8. Add 100 μl of 2× [200 nM] enzyme to assigned wells, except (−E) controls. [100 nM] final. • 11. Vortex 20 seconds. Read@ 405 nM every 30 seconds for 1 hour on SpectraMax Plus • Endpoint assay reading plate@ 600 nM. Used for the detection of precipitation. Cathepsin H: Materials: • 1. 96-well Round or V-bottom microplates for dilutions • 2. 96-well COSTAR UV microplates for assay (COSTAR cat.#3635) • 3. Bio-Spin 6 Chromatography Columns (BIO-RAD cat.#732-6002) • 4. 12-75 mm test tubes • 5. Falcon 50 ml tubes • 6. Falcon 14 ml tubes • 7. 1.5 ml eppendorf tube • 8. ≧10 ml buffer reservoir Reagents: • 1. Enzyme: Cathepsin H, M.W.28,000, 9.07 μM stock. • 2. Substrate:H-Arg-pNA, M.W. 367.2, prep. 50 mM [18.36 mg/ml] stock. • 3. Buffer: [100 mM NaP04, 1 mM EDTA, 1 mM DTT, pH 6.5 Instrument Settings: SpectraMax Plus • 1. Kinetic assay reading@410 nM • 2. Read interval: 30 seconds • 3. Time: 1 hour • 4. OD Min: −0.001 • 5. OD Max: 0.05 • 6. Data Mode: Absorbance • 7. e410=188.415 μM/O.D. Km=108±5 μM Procedure: • 1. Prep. substrate: 50 mM (18.36 mg/ml) stock in 100% DMSO. • 2. Add 73 μl of buffer to all wells. • 3. Add 7 μl of sample to appropriate wells: a.) 100% DMSO for (+E) & (−E) controls. • 4. Add 100 μl of buffer to (−E) controls. • 5. Dilute substrate (1:20) in buffer; Add 140 μl to 2.66 ml buffer while vortexing. [2.5 mM] final. • 6. Add 20 μl of substrate to all wells. Vortex 3-5 seconds. [250 μM] final. • 7. Dilute enzyme (1:64.8) in buffer; Add 179 μl to 11.418 ml buffer. 2× [140 nM] final. • 8. Add 100 μl of 2× [140 nM] enzyme to assigned wells, except (−E) controls. [70 nM] final. • 9. Read@410 nM every 30 seconds for 1 hour on SpectraMax Plus Cathepsin L: Materials: • 1. 96-well Round or V-bottom microplates for dilutions • 2. 96-well COSTAR UV microplates for assay (COSTAR cat.#3635) • 3. Falcon 50 ml tubes • 4. Falcon 14 ml tubes • 5. 1.5 ml eppendorf tube • 6. 10 ml buffer reservoir Reagents: • 1. Enzyme: Calbiochem #219402: Cathepsin L, M.W.29,000, 11.62 μM stock. Lot#B45683 • 2. Substrate: Bachem #L-1242: Z-Phe-Arg-pNA, M.W. 612.09, prep. 4.8 mM [2.938 mg/ml] stock in 100% DMSO. • 3. Buffer: [100 mM NaP04, 1 mM EDTA, pH 5.5] Supplement buffer w/1 mM DTT, day of assay. Experiment #1: • Instrument settings: SpectraMax Plus microtiter plate reader (Molecular Devices, Sunnydale, Calif.) • 1. Kinetic assay reading@410 nM • 2. Read interval: 30 seconds • 3. Time: 1 hour • 4. OD Min: −0.001 • 5. OD Max: 0.05 • 6. Data Mode: Absorbance • 7. ε410=161.311 μM/O.D. Km=56±8 μM Procedure: • 1. Add 88 μl of buffer to all wells. • 2. Add 7 μl of sample or 100% DMSO to appropriate wells. • 3. Add 100 μl of buffer to (−E) controls. • 5. Add 5 μ 4.8 mM] substrate to all wells. [120 μM] final. • 6. Vortex 3-5 seconds. • 7. Dilute enzyme (1:483.87) in buffer; Add 24.8 μl to 12,000 μl buffer. 2×[24 nM] final. • 8. […]
# T1 sequence (P07711 114-288 limits assumed): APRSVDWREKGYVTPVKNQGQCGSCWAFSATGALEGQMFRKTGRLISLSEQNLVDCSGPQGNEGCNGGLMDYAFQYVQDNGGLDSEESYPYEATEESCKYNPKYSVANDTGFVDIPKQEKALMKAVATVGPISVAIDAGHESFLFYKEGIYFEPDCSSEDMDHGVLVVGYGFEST
# T1 sequence (P07711 292-333 limits assumed): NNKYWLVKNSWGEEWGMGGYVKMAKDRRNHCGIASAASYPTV
row,SMILES,Ki
1,CCC[C@H](NC(=O)[C@@H]1[C@@H]2[C@H](CN1C(=O)[C@@H](NC(=O)NC1([C@H]3CCCS3(=O)=O)CCCCC1)C1(C)CCCCC1)C2(C)C)C(=O)C(=O)NC1CC1,31 nM
2,CC(C)C[C@@H](C(=O)NC(CC1CCC1)C(=O)C(N)=O)N1CCCCCC[C@H](NC(=O)N[C@@H](C(=O)OC(C)C)C(C)(C)C)C1=O (stereo partly drawn),120 nM
3,C=CCNC(=O)C(=O)C(CC1CC1)NC(=O)[C@@H]1[C@H]2C(c3ccccc3)[C@H]2CN1C(=O)[C@@H](NC(=O)NC1(CS(=O)(=O)C(C)(C)C)CCCCC1)C(C)(C)C (stereo partly drawn),350 nM
4,C=CCNC(=O)C(=O)C(CCC)NC(=O)[C@@H]1[C@@H]2[C@H](CN1C(=O)[C@@H](NC(=O)N[C@H](CN1CCCCC1=O)C(C)(C)C)C1Cc3ccccc3C1)C2(C)C (stereo partly drawn),140 nM
5,C=CCNC(=O)C(=O)C(CCC)NC(=O)[C@@H]1CCCN1C(=O)[C@@H](NC(=O)NC1(CS(C)(=O)=O)CCCCC1)C(C)(C)C (stereo partly drawn),740 nM
6,CCCC(NC(=O)[C@@H]1[C@@H]2CCN1C(=O)[C@H](C(C)(C)C)NC(=O)Cc1cccc(c1)OCCCO2)C(=O)C(=O)NCC(=O)N[C@H](C(=O)N(C)C)c1ccccc1 (stereo partly drawn),70 nM
7,C=CCNC(=O)C(=O)[C@H](CCCC)NC(=O)[C@@H]1[C@@H]2[C@H](CN1C(=O)[C@@H](NC(=O)NC1([C@H]3CCCS3(=O)=O)CCCCC1)C(C)(C)C)C2(C)C [drawing 681],140 nM
8,"C=CCCC(NC(=O)[C@@H]1[C@H]2C[C@H]2CN1C(=O)[C@@H](NC(=O)OC(C)(C)C)C1CCCCC1)C(=O)C(=O)NCC(=O)N[C@H](C(=O)N(C)C)c1ccccc1 (stereo partly drawn) (Boc-[Chg][Pro(3S,4R-methano)][X3]G[Phg]-NMe2)",270 nM
9,CC1C[C@H]2CN(C(=O)[C@@H](NC(=O)OC(C)(C)C)C3CCCCC3)[C@H](C(=O)NC(CC3CC3)C(=O)C(=O)NCC(=O)N[C@H](C(=O)N(C)C)c3ccccc3)[C@H]2C1 (stereo partly drawn),120 nM
10,C=CCNC(=O)C(=O)[C@H](CCC1CC1)NC(=O)[C@@H]1[C@@H]2[C@H](CN1C(=O)[C@@H](NC(=O)NC1(CS(=O)(=O)C(C)(C)C)CCCCC1)C(C)(C)C)C2(C)C [drawing 670],45 nM
11,CC(C)(C)NC(=O)N[C@H]1CCCCCCCCCC[C@@H](C(=O)C(N)=O)NC(=O)[C@@H]2[C@@H]3[C@H](CN2C1=O)C3(C)C,300 nM
12,CCC1C[C@]1(NC(=O)[C@@H]1C[C@H](Oc2cc(-c3ccccc3)nc3cc(OC)ccc23)CN1C(=O)[C@@H](NC(=O)OC(C)(C)C)C(C)C)C(=O)O (stereo partly drawn),100 nM
13,CCCC[C@H](NC(=O)[C@@H]1[C@@H]2[C@H](CN1C(=O)[C@@H](NC(=O)NC1(CS(=O)(=O)C(C)C)CCCCC1)C(C)(C)C)C2(C)C)C(=O)C(=O)NC1CC1,38 nM

# Compounds with a lower Ki, results first:
row,Ki,SMILES
1,24 nM,CC1([C@H](NC(=O)NC2(C3CCCS3(=O)=O)CCCCC2)C(=O)N2C[C@H]3[C@@H]([C@H]2C(=O)N[C@@H](CCC2CC2)C(=O)C(=O)NC2CC2)C3(C)C)CCCCC1 (stereo partly drawn)
2,20 nM,CCCC[C@H](NC(=O)[C@@H]1[C@@H]2[C@H](CN1C(=O)[C@@H](NC(=O)NC1([C@H]3CCCS3(=O)=O)CCCCC1)C1(C)CCCCC1)C2(C)C)C(=O)C(=O)NC1CC1
3,8 nM,CC(=O)N[C@@H](CC(C)C)C(=O)N[C@@H](CC(C)C)C(=O)N[C@H](C=O)CCCNC(=N)N [drawing 689]
4,12 nM,CC1([C@H](NC(=O)NC2(CS(=O)(=O)C(C)(C)C)CCCCC2)C(=O)N2C[C@H]3[C@@H]([C@H]2C(=O)N[C@@H](CCC2CC2)C(=O)C(=O)NC2CC2)C3(C)C)CCCCC1
5,17 nM,CCCC(NC(=O)[C@@H]1C[C@@H]2CN1C(=O)C(C1CCCCC1)NC(=O)Cc1cccc(c1)OCCCC(C)(C)C2)C(=O)C(N)=O (stereo partly drawn)
6,10 nM,C=CCNC(=O)C(=O)[C@@H]1CCCCCCCCC[C@H](NC(=O)NC2(CS(=O)(=O)C(C)(C)C)CCCCC2)C(=O)N2C[C@H]3[C@@H]([C@H]2C(=O)N1)C3(C)C [drawing 653]
7,14 nM,CC(C)(C)OC(=O)N[C@H](C(=O)N1CC2CCCC2[C@H]1C(=O)NC(CC1CC1)C(=O)C(N)=O)C1CCCCC1 (stereo partly drawn)
8,2 nM,CCCC(NC(=O)C(CC(C)C)NC(=O)C(NC(=O)OCC(C)C)C1CCCCC1)C(=O)C(=O)NCC(=O)NC(C(N)=O)c1ccccc1 (stereo not drawn) (Isobutyloxycarbonyl-[Chg]L[X2]G[Phg]-NH2; configuration not given here)
